Laboratory results as given in PMC3211141 (Anesthesiology, 2011).
Where two headings read alike, the source gives them in different places.

What was measured:
[1] = molecular target: TASK-1/TASK-3 heterodimeric channels (Rattus norvegicus, UniProt O54912+Q9ES08); type: cell-based; details: exemplar cell
[2] = test system: homomeric and heteromeric TASK channels; assay: Whole-cell recording, statements across all tested TASK channel constructs; type: cell-based
[3] = test system: wild-type C57BL/6 mice; details: for EC50 for induction of seizures: wild type mice, quantal dose-response; for EC50 for induction of seizures / seizure duration (typical) / seizure incidence (N=seizure/total) / seizure incidence (% of mice): iv
[4] = test system: TASK-1−/−:TASK-3−/− double knockout mice; details: for EC50 for induction of seizures / seizure duration (typical): iv
[5] = test system: wild-type mice; assay: Electroencephalogram recording of bupivacaine-induced seizures, wild type mice; type: in vivo; details: control (wild type) mice, two lower bupivacaine doses, n=6
[6] = test system: TASK−/− mice; type: in vivo; details: two lower bupivacaine doses, n=6
[7] = TASK−/− mice, quantal dose-response
[8] = C57BL/6, mouse, in vivo, 5 mg/kg
[9] = C57BL/6, mouse, in vivo, 10 mg/kg
[10] = C57BL/6 background (TASK-1−/−:TASK-3−/− double knockout), mouse, in vivo
[11] = C57BL/6, mouse, in vivo, 2.5 mg/kg
[12] = C57BL/6, mouse, in vivo, 3.75 mg/kg
[13] = C57BL/6, mouse, in vivo, 6.25 mg/kg
[14] = C57BL/6, mouse, in vivo, 7.5 mg/kg

Sequence of TASK-1/TASK-3 heterodimeric channels (O54912 whole entry): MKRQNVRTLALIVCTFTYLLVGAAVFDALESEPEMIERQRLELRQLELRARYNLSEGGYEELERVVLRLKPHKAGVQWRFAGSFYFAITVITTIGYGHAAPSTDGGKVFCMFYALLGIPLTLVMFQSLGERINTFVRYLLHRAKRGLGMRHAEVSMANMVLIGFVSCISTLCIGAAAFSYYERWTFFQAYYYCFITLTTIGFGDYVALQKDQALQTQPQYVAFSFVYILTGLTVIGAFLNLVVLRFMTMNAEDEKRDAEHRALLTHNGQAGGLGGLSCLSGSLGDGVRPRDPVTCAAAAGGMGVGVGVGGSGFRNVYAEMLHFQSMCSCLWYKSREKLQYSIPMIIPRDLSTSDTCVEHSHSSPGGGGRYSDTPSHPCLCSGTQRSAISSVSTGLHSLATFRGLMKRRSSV
Sequence of TASK-1/TASK-3 heterodimeric channels (Q9ES08 whole entry): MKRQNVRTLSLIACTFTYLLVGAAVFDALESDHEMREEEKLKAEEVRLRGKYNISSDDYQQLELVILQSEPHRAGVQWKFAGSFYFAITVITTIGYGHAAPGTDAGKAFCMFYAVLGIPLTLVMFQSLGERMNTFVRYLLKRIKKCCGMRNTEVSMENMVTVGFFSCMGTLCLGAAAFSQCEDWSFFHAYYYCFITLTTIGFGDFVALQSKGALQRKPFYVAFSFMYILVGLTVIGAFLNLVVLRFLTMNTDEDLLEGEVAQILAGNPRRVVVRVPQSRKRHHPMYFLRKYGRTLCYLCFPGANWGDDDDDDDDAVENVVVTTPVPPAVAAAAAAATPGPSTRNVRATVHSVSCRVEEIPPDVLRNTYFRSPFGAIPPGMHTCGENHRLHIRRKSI

Compound	EC50 for induction of seizures [3]	EC50 for induction of seizures [4, 7]	seizure duration (typical) ([3]; C57BL/6, mouse, in vivo) [s]	seizure incidence (N=seizure/total) [3, 8]	seizure incidence (N=seizure/total) [3, 9]	seizure duration (typical) [4, 10] [s]	seizure incidence (N=seizure/total) [3, 11]	seizure incidence (N=seizure/total) [3, 13]	seizure incidence (N=seizure/total) [3, 14]	further results
picrotoxin	~ 1.0 mg/kg	~ 1.0 mg/kg	–	–	–	–	–	–	–	effect on peak TASK-1/TASK-3 current ([1]; 100 μM): no discernible effect; decrease in peak TASK-1/TASK-3 current ([1]; 300 μM): < 10%; decrease in current amplitude (averaged, non-significant) ([2]; all tested TASK channel constructs, 50, 100 & 300 μM): ≤ 13%
CCN(CC)CC(=O)Nc1c(C)cccc1C [lidocaine]	–	–	< 25	0/15	4/15	< 25	–	–	–	seizure incidence (N=seizure/total) ([3]; C57BL/6, mouse, in vivo, 15 mg/kg): 10/15; seizure incidence (N=seizure/total) ([3]; C57BL/6, mouse, in vivo, 17.5 mg/kg): 13/15; EC50 for induction of seizures ([4]; mouse, in vivo): 17.3 ± 1.0 mg/kg
CCCCN1CCCCC1C(=O)Nc1c(C)cccc1C (centres unmarked) [bupivacaine]	3.4 ± 0.1 mg/kg	4.5 ± 0.1 mg/kg	–	14/14	–	–	1/14	12/12	4/4	fold more potent than lidocaine for TASK channel inhibition [2]: 3.1- to 4.4 fold; fold more potent than ropivacaine for TASK channel inhibition ([2]; across TASK channels): 1.4- to 1.7 fold; electroencephalogram peak frequency during seizures [5]: 3.4 ± 0.4 Hz; electroencephalogram peak frequency during seizures [6]: ~ 4.4 ± 0.2 Hz; fold more potent for induction of seizures than ropivacaine ([3]; C57BL/6, mouse, in vivo): ~ 1.4 fold; seizure incidence (% of mice) [3, 12]: ~ 71%; seizure duration (typical) ([3]; mouse, in vivo): significantly longer in duration; fold more potent for induction of seizures than ropivacaine [4, 10]: ~ 1.4 fold
CCCN1CCCC[C@H]1C(=O)Nc1c(C)cccc1C [ropivacaine]	4.7 ± 0.1 mg/kg	6.0 ± 0.2 mg/kg	< 150	10/14	3/3	< 150	0/14	14/14	11/11	seizure incidence (N=seizure/total) [3, 12]: 0/14; seizure incidence (% of mice) [3, 8]: ~ 72%; seizure incidence (N=seizure/total) ([3]; C57BL/6, mouse, in vivo, 8.75 mg/kg): 9/9
